Measured values taken from ChEMBL document CHEMBL3507680, “University of Dundee, Gates Library screen for HepG2 cell viability”.

Test: Human HepG2 cell viability assay in 384 well format
Format: toxicity, cell-based
Design: dose 125 nL, time 70.5 hour; concentration not given beside the values
Details: HepG2 cells, read-out: Inhibition

Structure (SMILES)	cytotoxicity at 70.5 h
Cc1cccc(N2CCN(CCNC(=O)c3ccnn3C)CC2)c1	-9.52%
CCN(CC)C(CNC(=O)c1ccc(S(C)(=O)=O)cc1)c1ccco1 (stereo unspecified)	-0.309%
Cc1nc(C)c(C(=O)N2CCCC2c2nnc3n2CCCCC3)s1 (stereo unspecified)	-8.07%
c1cnn(CC2CN(c3ncnc4ccsc34)CCO2)c1 (stereo unspecified)	-0.0557%
COc1cccc(CN2CCOC(Cn3nc(C)cc3C)C2)c1 (stereo unspecified)	-6.54%
c1cnn(CC2CN(c3ncnc4sccc34)CCO2)c1 (stereo unspecified)	-4.77%
Cc1cnn(CC2CN(c3ncnc4ccsc34)CCO2)c1 (stereo unspecified)	16%
CC(C)n1cc(CN2CCCN(C(=O)c3ccc[nH]3)CC2)cn1	-5.05%
O=C(CC1CN(Cc2ccccc2)CCO1)Nc1ccccc1F (stereo unspecified)	-3.6%
CNc1cc(N2CCCC2CNCc2c[nH]nc2C(C)(C)C)ncn1 (stereo unspecified)	0.0673%
Cn1ccnc1CC1CCCN(C(=O)Nc2cccn(C)c2=O)C1 (stereo unspecified)	-2.41%
O=C(NCCOc1ncc(Cl)cc1Cl)c1ccncc1	1.47%
Cc1ccc(CCNC(=O)N2CCCC(Cc3nccn3C)C2)cn1 (stereo unspecified)	1.34%
Cc1cccc(N2CCOCC3(C2)CN(c2cncnc2)C(=O)CO3)n1 (stereo unspecified)	-6.08%
CCOC1CCC2(CCN(C(=O)c3c[nH]cn3)CC2)c2ccccc21 (stereo unspecified)	-6.3%
CCc1ccc(NC(=O)N2C[C@H]3C[C@H](C(=O)NC(C)C)[C@@H](C2)O3)cc1	-7.8%
O=C(c1ccc[nH]1)N1CCCn2c(nnc2Cn2cccn2)C1	-9.08%
Cc1ncnc2c1CCN(C(=O)N(C)C)CC2	-0.115%
CS(=O)(=O)N1CCO[C@@H]2CN(C(=O)C3CCOC3)CC[C@@H]2C1 (stereo partly specified)	-6.14%
CS(=O)(=O)N1CCO[C@@H]2CN(C(=O)N3CCOCC3)CC[C@@H]2C1	-6.09%
Cc1nc(CN2C(=O)CCC23CCN(Cc2ccco2)CC3)cs1	-1.31%
CN1CCC2(CC1)CN(C(=O)c1ccncc1)Cc1ccccc12	-2.21%

Structure (SMILES)	cytotoxicity at 70.5 h
CC(=O)N1CC[C@H]2OCC[C@@H](C(=O)NCc3ccco3)[C@@H]2C1	26.4%
CC(C)NC(=O)N1CC[C@@H]2CN(Cc3ccccc3)S(=O)(=O)[C@@H]2CC1	18.6%
CC(C)NC(=O)N1CCC2(COCc3cnc(-c4cccnc4)nc32)C1 (stereo unspecified)	-2.99%
CO[C@@H]1CC[C@H]2[C@H]1OCCN2C(=O)COc1ccc(F)cc1	-16.9%
COCC(=O)NCc1cc(=O)n2c(n1)CN(Cc1ccsc1)CCC2	-12.5%
CN(C)C(=O)N1C[C@@H]2COC[C@]2(CNS(C)(=O)=O)C1	-14.4%
CNC(=O)N1CC[C@@H]2CN(Cc3cccnc3)S(=O)(=O)[C@@H]2CC1	-17.6%
c1coc(CN2C[C@H](OCC3CCOCC3)[C@H]3COC[C@H]32)c1	-15.3%
O=C(Nc1cccnc1)[C@H]1C[C@@H]2CN(C(=O)NC3CCCC3)C[C@H]1O2	-1.2%
CC(C)NC(=O)N1CCc2nc(C(=O)NCc3ccccc3)sc2CC1	-15.4%
CS(=O)(=O)N[C@@H]1CCO[C@]2(CCN(C(=O)C3=CCCC3)C2)C1	-10%
Cn1cc(C2COC3(CCN(C(=O)Cn4cccn4)CC3)C2)cn1 (stereo unspecified)	-2.75%
CS(=O)(=O)NCc1nnc2n1CCN(Cc1cccs1)C2	-3.11%
CCS(=O)(=O)N1CC[C@H](OC)[C@@H]1Cc1ccncc1	3.22%
Cn1ccnc1CN1CC[C@@H](NS(C)(=O)=O)[C@@H]1Cc1cccnc1	-2.76%
Cc1noc([C@H]2C[C@@H]3CCN(C(=O)C4CCOCC4)C[C@H]3O2)n1	-1.73%
Cc1ccc(N2CCC3(CC2)CC(OCC(=O)N(C)C)CO3)nn1 (stereo unspecified)	-8.76%
Cc1nc(CN2C(=O)CC[C@H]3[C@@H]2CCN3C(=O)c2ccsc2)cs1	-11.6%
Cn1cc2c(n1)C(COCC1CC1)CN(Cc1ccccn1)C2 (stereo unspecified)	15.6%
Cn1ncc2c1C(COCC1CC1)CN(Cc1ccoc1)C2 (stereo unspecified)	-6.88%
Cc1cnc(N2CCn3cc(CNC(=O)CC4CC4)nc3C2)nc1	25.9%
CN(C)C(=O)NC1COC2(CCN(C(=O)Nc3ccccc3)CC2)C1 (stereo unspecified)	7.49%

Structure (SMILES)	cytotoxicity at 70.5 h
Cc1cc(C(=O)N(C)Cc2ccccc2OCC(C)C)cc(=O)[nH]1	15.6%
CC(Cn1cccn1)n1cnc2ccc(F)cc2c1=O (stereo unspecified)	-7.83%
COc1cccc(-c2cc(CN)ccc2F)c1F	-8.44%
CSCCC(=O)N1CCC(CCC(=O)NCC2CCCO2)CC1 (stereo unspecified)	-13.2%
CC(C)CN1CCCn2nc(CNC(=O)CN3CCOC3=O)cc2C1	-7.41%
COCCN(Cc1cnn(C)c1)C(=O)C1CCN(C2CCCCC2)CC1	-10.8%
CCN(Cc1cc(F)c(OC)c(Cl)c1)Cc1nc(COC)no1	12.1%
CN(Cc1ccoc1)C(=O)CN1C(=O)OC(C)(C)C1=O	-8.72%
CCS(=O)(=O)NCc1cccnc1N1CCCC(O)C1 (stereo unspecified)	-26.9%
CN1CC2(CCCN(Cc3ccc(Oc4ccccc4)cc3)C2)OC1=O (stereo unspecified)	16.8%
O=c1[nH]c2ccccc2cc1CN(Cc1ccccn1)CC1CCCO1 (stereo unspecified)	-4.2%
CN1C(=O)CC(C(=O)O)C12CCN(c1ccc3cccc(Cl)c3n1)CC2 (stereo unspecified)	-4.5%
Cn1nc(CO)c2c1CCN(c1ncnc3c1CCNC3)C2	-6.14%
CN(Cc1cc(-c2cccnc2)no1)C(=O)C1CCCN1S(C)(=O)=O (stereo unspecified)	-8.25%
CCn1ccnc1CN(C)c1cc(N(C)C)ncn1	0.0154%
O=C(N[C@@H]1c2ccccc2C[C@@H]1O)C1CCN(Cc2ccco2)CC1	-0.979%
Fc1ccc(C(CNc2ccncn2)N2CCCC2)cc1 (stereo unspecified)	12.7%
Cc1ccc2c(c1)C(NC1CC1)CC21CCNCC1 (stereo unspecified)	11%
COc1ccc2c(c1)C1(CCNCC1)CC2NC1CC1 (stereo unspecified)	27.2%
Cc1ccc2c(c1)C1(CCNCC1)CC2NC1CC1 (stereo unspecified)	2.66%
c1cnc(NCc2cncc3c2CCN(Cc2cccs2)C3)nc1	-10.8%
CN1CC[C@]2(CN(CC3CCOC3)C[C@H]2c2ccccc2)C1=O (stereo partly specified)	16.2%

Structure (SMILES)	cytotoxicity at 70.5 h
COc1ncccc1CN1C[C@H]2CCN(c3ccc(C)nn3)C[C@H]2C1	20%
c1coc(CN2CCO[C@H]3[C@@H](OCC4CC4)CC[C@@H]32)c1	-7.18%
CN1CC[C@]2(CN(CC3CCOCC3)C[C@H]2c2ccccc2)C1=O	-7.31%
CC(C)N(C)Cc1cc(=O)n2c(n1)CN(S(=O)(=O)C1CC1)CCC2	-7.06%
CCOCC1c2c(cnn2C)CCN1C(=O)c1cc(C)on1 (stereo unspecified)	6.2%
CCC(=O)Nc1ccc2c(c1)C1(CCOCC1)CN2CCF	16.7%
CC(=O)N1Cc2ccnn2CC(C(=O)NCc2cccnc2)C1 (stereo unspecified)	-6.11%
COCC(=O)Nc1ccc2c(c1)C1(CCOCC1)CN2CCF	16.5%
COCC1CN(Cc2ccc(F)cc2)Cc2nn(C)cc21 (stereo unspecified)	-3%
CCO[C@H]1CO[C@@]2(CCCN(S(=O)(=O)c3cccnc3)C2)C1	-11.8%
CCN(CC)Cc1cn2c(n1)CN(C(=O)c1cc(C)on1)CC2	-13.3%
COCC(=O)N1CC[C@@H]2O[C@H](COCc3ccncc3)CC[C@@H]21	-15.9%
O=C([C@H]1C[C@H]2OCC[C@H]2N(CCc2ccccc2)C1)N1CCCCO1	-6.32%
CCc1ccc(CN2CCC3(CC2)CC(N2CCN(C)CC2)CO3)cc1 (stereo unspecified)	7.28%
Cn1cc(C[C@H]2[C@H](O)CCN2CC2CC2)cn1	6.74%
CC(C)Nc1ncnc2c1CCN(C(=O)c1ccncc1F)CC2	5.41%
CN(C)C(=O)N1CCC2(CCCN(Cc3cnn(C)c3)C2)C1 (stereo unspecified)	6.69%
O=C(c1ccc[nH]1)N1CCc2c(COCC3CC3)cncc2C1	-4.79%
Cc1nc(CN2C[C@@H]3CN(C(=O)C4CC4)C[C@@H]3C2=O)cs1	27.3%
Cc1nc(CN2C[C@@H]3CN(C(=O)c4cccn4C)C[C@@H]3C2=O)cs1	-3.56%
O=C1CO[C@@H]2CN(CC3CCOCC3)C[C@H]2N1CC1CC1	-2.81%
CN(C)C(=O)N1CCN(Cc2cnn(C)c2)CC2(CNC(=O)C2)C1 (stereo unspecified)	-7.42%

Structure (SMILES)	cytotoxicity at 70.5 h
Cc1nc(CN2CCc3ncnc(-c4ccc(F)cc4)c3CC2)cs1	-4.74%
Cc1nc(CN2C[C@@H]3CN(C(=O)c4ccnnc4)C[C@@H]3C2=O)cs1	-3.08%
O=C1CC(c2ccncc2)C2(CCN(C(=O)c3ccc[nH]3)CC2)N1 (stereo unspecified)	23.7%
CN(C)CCNC(=O)c1cc(-c2cnc(N3CCCC3)nc2)cn1C	21.5%
Cc1cccc(C(=O)N2C[C@@H]3CCN(c4cccnc4)C[C@@H]3C2)c1	31.2%
Cc1cccc(N2CC[C@@H]3CN(C(=O)c4ccco4)CCO[C@@H]3C2)n1	-13.8%
Cn1cc(CN2CC[C@]3(C[C@H](Oc4ccccn4)CO3)C2)cn1	-6.32%
Cn1cc(CN2CCC[C@]3(C[C@H](Oc4ncccc4F)CO3)C2)cn1	-5.41%
COCCN1CC[C@@H]2CN(Cc3cccnc3OC)C[C@@H]2C1	13.9%
COCCN1CC[C@@H]2CN(Cc3nccn3C)C[C@@H]2C1	8.43%
O=C(Cc1ccccn1)N1CCN2C[C@H](Oc3cccc(F)c3)C[C@H]2C1	33.7%
CNC(=O)[C@H]1CO[C@H]2CCN(Cc3ccc4ccccc4n3)C[C@H]2C1	-0.28%
O=C(c1ccc(F)cc1)N1CCN2C[C@H](OCc3ccccn3)C[C@H]2C1	-6.75%
Fc1ccc(CNCC2OCCc3cn(CC4CC4)nc32)cc1 (stereo unspecified)	5.14%
CCN1C[C@H]2[C@@H](C1)N(S(=O)(=O)c1cccnc1)CC[C@H]2OC	45.6%
FC1(F)CCN(Cc2cccnc2)CC12CCN(c1ccccn1)C2 (stereo unspecified)	-15.1%
CNC(=O)C1Cn2ccnc2C2(CCN(Cc3cccnc3)CC2)O1 (stereo unspecified)	2.48%
CN1CCN(Cc2cnc3n2CCN(Cc2cccs2)C3)CC1	3.18%
